# Measured values taken from patent US10590118B2, “Bicyclic heterocyclic derivatives as bromodomain inhibitors” (Orion Corporation, priority 2014, dated 2020).
# pIC50: −log10 of the molar value.
# Target: T1, Bet bromodomain protein (BRD4) (Homo sapiens, UniProt O60885)
# T1 construct: made in house
# Experiment: Bet bromodomain TR-FRET assay
# Format: binding
# Settings: 300 nM acetyl histone peptide substrate, results given as Group A/B/C
# Description: In-Vitro Biochemical Data of bicyclic heterocyclic derivatives in time-resolved fluorescence resonance energy transfer (TR-FRET) assay.
# The Bet brommodomain TR-FRET assay has been used to identify compounds that bind to bet bromodomain and prevent its interaction with acetylated histone peptides.
# In the assay, optimized concentration of in-house Bet bromodomain protein (BRD4) and 300 nM of acetyl histone peptide substrate were diluted in assay buffer (50 mM HEPES, pH: 7.5, 50 mM NaCl, 500 μM CHAPS) and were added to the positive control and test control wells in a 384 well plate. Substrate control wells have 300 nM of acetyl histone peptide substrate diluted in assay buffer. Buffer blank wells were added with assay buffer. The reaction mixture was allowed for incubation at room temperature for 30 mins. Stock solutions of test compounds at 20 mM DMSO are prepared. Compounds are serially diluted and added to the test wells in 384-well polypropylene plates. The reaction mixture was further incubated for 30 mins at room temperature on a plate shaker. 2 nM of Europium labeled streptavidn and 10 nM of XL-665 labeled antibody diluted in detection buffer (50 mM HEPES, pH: 7.5, 50 mM NaCl, 500 μM CHAPS and 800 mM KF) were added to all the wells excluding the buffer blank wells. The reaction plate was incubated for additional 30 mins at room temperature on plate shaker. The plate was read in Perkin Elmer WALLAC 1420 Multilabel Counter Victor 3 (Ex: 340 nm Em: 615 and 665 nm). The amount of displacement of the peptide was measured as ratio of specific 665 nm energy transfer signal to 615 nm signals. The compounds IC50 was determined by fitting the dose response data to sigmoid curve fitting equation using Graph Pad Prism software V5.
row,SMILES,pIC50
1,"COc1cc2c(cc1-c1c(C)noc1C)cc(C(O)C(F)(F)F)c(=O)n2Cc1ccccn1 (racemic) [Compound 101, 6-(3,5-dimethylisoxazol-4-yl)-methoxy-1-(pyridin-2-ylmethyl)-3-(2,2,2-trifluoro-1-hydroxyethyl)quinolin-2(1H)-one]",≥ 6.00
2,"COc1cc2c(cc1-c1c(C)noc1C)OCC(=O)N2C(C)c1ccncc1 (single isomer, unassigned) [Compound 19, 7-(3,5-dimethylisoxazol-4-yl)-6-methoxy-4-(1-(pyridin-4-yl)ethyl)-2H-benzo[b][1,4]oxazin-3(4H)-one]",< 5.52
3,"COc1cc2c(cc1-c1c(C)noc1C)OCC(=O)N2C(C)c1ccncc1 (single isomer, unassigned) [Compound 20, 7-(3,5-dimethylisoxazol-4-yl)-6-methoxy-4-(1-(pyridin-4-yl)ethyl)-2H-benzo[b][1,4]oxazin-3(4H)-one]",≥ 6.00
4,"COc1cc2c(cc1-c1c(C)noc1C)OCC(=O)N2C(C)c1cccnc1 (single isomer, unassigned) [Compound 24, 7-(3,5-dimethytisoxazol-4-yl)-6-methoxy-4-(1-(pyridin-3-yl)ethyl)-2H-benzo[b][1,4]oxazin-3(4H)-one]",≥ 6.00
5,"COc1cc2c(cc1-c1c(C)noc1C)OCC(=O)N2C(C)c1cccnc1 (single isomer, unassigned) [Compound 25, 7-(3,5-dimethytisoxazol-4-yl)-6-methoxy-4-(1-(pyridin-3-yl)ethyl)-2H-benzo[b][1,4]oxazin-3(4H)-one]",5.52 to 6.00
6,"COc1cc2c(cc1-c1c(C)noc1C)OCC(=O)N2C(C)c1ccc(Cl)cc1 (single isomer, unassigned) [Compound 33, 4-(1-(4-chlorophenyl)ethyl)-7-(3,5-dimethylisoxazol-4-yl)-6-methoxy-2H-benzo[b][1,4]oxazin-3(4H)-one]",5.52 to 6.00
7,"COc1cc2c(cc1-c1c(C)noc1C)OCC(=O)N2C(C)c1ccc(Cl)cc1 (single isomer, unassigned) [Compound 34, 4-(1-(4-chlorophenyl)ethyl)-7-(3,5-dimethylisoxazol-4-yl)-6-methoxy-2H-benzo[b][1,4]oxazin-3(4H)-one]",≥ 6.00
8,"COc1cc2c(cc1-c1c(C)noc1C)cc(C(O)C(F)(F)F)c(=O)n2Cc1ccccn1 (single isomer, unassigned) [Compound 102, 6-(3,5-dimethylisoxazol-4-yl)-7-methoxy-1-(pyridin-2-ylmethyl)-3-(2,2,2-trifluoro-1-hydroxyethyl)quinolin-2(1H)-one]",≥ 6.00
9,"COc1cc2c(cc1-c1c(C)noc1C)OCCN2Cc1ccc(Cl)cc1 [Compound 1, 4-(4-chlorobenzyl)-7-(3,5-dimethylisoxazol-4-yl)-6-methoxy-3,4-dihydro-2H-benzo[b][1,4]oxazine]",≥ 6.00
10,"COc1ccc(Cn2c(=O)ccc3cc(-c4c(C)noc4C)c(OC)cc32)nc1 [Compound 2, 6-(3,5-dimethytisoxazol-4-yl)-7-methoxy-1-((5-methoxypyridin-2-yl)methyl)quinolin-2(1H)-one]",≥ 6.00
11,"COc1cc2c(ccc(=O)n2Cc2ccccn2)cc1-n1c(C)nnc1C [Compound 3, 6-(3,5-dimethyl-4H-1,2,4-triazol-4-yl)-7-methoxy-1-(pyridin-2-ylmethyl)quinolin-2(1H)-one]",< 5.52
12,"COc1cc2c(cc1-c1c(C)noc1C)ncc(=O)n2Cc1ccc(Cl)cc1 [Compound 4, 1-(4-chlorobenzyl)-6-(3,5-dimethylisoxazol-4-yl)-7-methoxyquinoxalin-2(1H)-one]",≥ 6.00
13,"COc1cc2c(cc1-c1c(C)noc1C)CCC(=O)N2Cc1ccc(Cl)cc1 [Compound 5, 1-(4-chlorobenzyl)-6-(3,5-dimethyisoxazol-4-yl)-7-methoxy-3,4-dihydroquinolin-2(1H)-one]",≥ 6.00
14,"COc1cc2c(cc1-c1c(C)noc1C)OCCN2C(C)c1ccc(Cl)cc1 (stereo not drawn) [Compound 6, 4-(1-(4-chlorophenyl)ethyl)-7-(3,5-dimethylisoxazol-4-yl)-6-methoxy-3,4-dihydro-2H-benzo[b][1,4]oxazine]",< 5.52
15,"COc1cc2c(cc1-c1c(C)noc1C)OCCN2C(C)c1cccnc1 (stereo not drawn) [Compound 7, 7-(3,5-dimethylisoxazol-4-yl)-6-methoxy-4-(1-(pyridin-3-yl)ethyl)-3,4-dihydro-2H-benzo[b][1,4]oxazine]",≥ 6.00
16,"COc1cc2c(ccc(=O)n2Cc2cnccn2)cc1-c1c(C)noc1C [Compound 8, 6-(3,5-dimethylisoxazol-4-yl)-7-methoxy-1-(pyrazin-3-ylmethyl)quinolin-2(1H)-one]",≥ 6.00
17,"COc1cc2c(ccc(=O)n2Cc2ncccc2F)cc1-c1c(C)noc1C [Compound 9, 6-(3,5-dimethylisoxazol-4-yl)-1-((3-fluoropyridin-2-yl)methyl)-7-methoxyquinolin-2(1H)-one]",≥ 6.00
18,"COc1cc2c(cc1-c1c(C)noc1C)CCC(=O)N2Cc1ccccn1 [Compound 10, 6-(3,5-dimethylisoxazol-4-yl)-7-methoxy-1-(pyridin-2-ylmethyl)-3,4-dihydroquinolin-2(1H)-one]",≥ 6.00
19,"COc1cc2c(cc1-c1c(C)noc1C)OCCN2S(=O)(=O)c1cccc(Cl)c1 [Compound 11, 4-((3-chlorophenyl)sulfonyl)-7-(3,5-dimethylisoxazol-4-yl)-6-methoxy-3,4-dihydro-2H-benzo[b][1,4]oxazine]",5.52 to 6.00
20,"COc1cc2c(cc1-c1c(C)noc1C)OCCN2S(=O)(=O)c1cccnc1 [Compound 12, 7-(3,5-dimethylisoxazol-4-yl)-6-methoxy-4-(pyridin-3-ylsulfonyl)-3,4-dihydro-2H-benzo[b][1,4]oxazine]",5.52 to 6.00
21,"COc1cc2c(cc1NS(=O)(=O)c1c(C)noc1C)OCC(=O)N2Cc1ccc(Cl)cc1 [Compound 13, N-(4-(4-chlorobenzyl)-6-methoxy-3-oxo-3,4-dihydro-2H-benzo[b][1,4]oxazin-7-yl)-3,5-dimethylisoxazole-4-sulfonamide]",< 5.52
22,"COc1cc2c(ccc(=O)n2S(=O)(=O)c2ccc(Cl)cc2)cc1-c1c(C)noc1C [Compound 14, 1-((4-chlorophenyl)sulfonyl)-6-(3,5-dimethylisoxazol-4-yl)-7-methoxyquinolin-2(1H)-one]",< 5.52
23,"COc1cc2c(ccc(=O)n2C(=O)c2ccc(Cl)cc2)cc1-c1c(C)noc1C [Compound 15, 1-(4-chlorobenzoyl)-6-(3,5-dimethylisoxazol-4-yl)-7-methoxyquinolin-2(1H)-one]",< 5.52
24,"COc1cc2c(cc1-c1c(C)noc1C)OCCN2Cc1ccccc1N [Compound 16, 2-((7-(3,5-dimethylisoxazol-4-yl)-6-methoxy-2H-benzo[b][1,4]oxazin-4(3H)-yl)methyl)aniline]",≥ 6.00
25,"COc1cc2c(cc1-c1c(C)noc1C)OCC(=O)N2Cc1ccncc1 [Compound 17, 7-(3,5-dimethylisoxazol-4-yl)-6-methoxy-4-(pyridin-4-ylmethyl)-2H-benzo[b][1,4]oxazin-3(4H)-one]",≥ 6.00
26,"COc1cc2c(cc1-c1c(C)noc1C)OCC(=O)N2Cc1ccc(Cl)cc1 [Compound 18, 4-(4-chlorobenzyl)-7-(3,5-dimethylisoxazol-4-yl)-6-methoxy-2H-benzo[b][1,4]oxazin-3(4H)-one]",≥ 6.00
27,"COc1cc2c(cc1-c1c(C)noc1C)OCC(=O)N2Cc1cccnc1 [Compound 21, 7-(3,5-dimethylisoxazol-4-yl)-6-methoxy-4-(pyridin-3-ylmethyl)-2H-benzo[b][1,4]oxazin-3(4H)-one]",≥ 6.00
